Legend:
Erigeron canadensis [1] = assay: Herbicidal activity against compound-resistant Conyza canadensis (horseweed) isolate 2 under greenhouse condition at 3.36 kg ae/ha measured 14 days post treatment relative to control; type: functional
Erigeron canadensis [2] = assay: Herbicidal activity against compound-sensitive Conyza canadensis (horseweed) under greenhouse condition at 3.36 kg ae/ha measured 14 days post treatment relative to control; type: functional
Erigeron canadensis [3] = assay: Herbicidal activity against Conyza canadensis (horseweed) under greenhouse condition assessed as decrease in fresh weight at 0.05 kg ae/ha measured 21 days post treatment relative to untreated control; type: functional
Erigeron canadensis [4] = assay: Herbicidal activity against Conyza canadensis (horseweed) under greenhouse condition at 0.05 kg ae/ha measured 7 days post treatment relative to control; type: functional
Erigeron canadensis [5] = assay: Herbicidal activity against compound-sensitive Conyza canadensis (horseweed) under greenhouse condition at 1.25 kg ae/ha measured 14 days post treatment relative to control; type: functional
Erigeron canadensis [6] = assay: Herbicidal activity against Conyza canadensis (horseweed) under greenhouse condition at 0.05 kg ae/ha measured 21 days post treatment relative to control; type: functional
Erigeron canadensis [7] = assay: Herbicidal activity against compound-sensitive Conyza canadensis (horseweed) under greenhouse condition assessed as fresh weight at 1.25 kg ae/ha measured 21 days post treatment relative to untreated control
Erigeron canadensis [8] = assay: Herbicidal activity against compound-sensitive Conyza canadensis (horseweed) under greenhouse condition at 9 kg ae/ha measured 14 days post treatment relative to control; type: functional
Erigeron canadensis [9] = assay: Herbicidal activity against compound-resistant Conyza canadensis (horseweed) isolate 1 under greenhouse condition at 0.45 kg ae/ha measured 7 days post treatment relative to control; type: functional
Erigeron canadensis [10] = assay: Herbicidal activity against compound-sensitive Conyza canadensis (horseweed) under greenhouse condition assessed as fresh weight at 2.52 kg ae/ha measured 21 days post treatment relative to untreated control
Erigeron canadensis [11] = assay: Herbicidal activity against compound-sensitive Conyza canadensis (horseweed) under greenhouse condition at 3.36 kg ae/ha measured 21 days post treatment relative to control; type: functional
Erigeron canadensis [12] = assay: Herbicidal activity against compound-resistant Conyza canadensis (horseweed) isolate 1 under greenhouse condition at 1.68 kg ae/ha measured 21 days post treatment relative to control; type: functional
Erigeron canadensis [13] = assay: Herbicidal activity against compound-sensitive Conyza canadensis (horseweed) under greenhouse condition at 1.68 kg ae/ha measured 21 days post treatment relative to control; type: functional
Erigeron canadensis [14] = assay: Herbicidal activity against compound-resistant Conyza canadensis (horseweed) isolate 1 under greenhouse condition at 0.84 kg ae/ha measured 7 days post treatment relative to control; type: functional
Erigeron canadensis [15] = assay: Herbicidal activity against compound-resistant Conyza canadensis (horseweed) isolate 2 under greenhouse condition assessed as fresh weight at 3.36 kg ae/ha measured 21 days post treatment relative to untreated control
Erigeron canadensis [16] = assay: Herbicidal activity against compound-resistant Conyza canadensis (horseweed) isolate 1 under greenhouse condition assessed as fresh weight at 2.52 kg ae/ha measured 21 days post treatment relative to untreated control
Erigeron canadensis [17] = assay: Herbicidal activity against compound-sensitive Conyza canadensis (horseweed) under greenhouse condition at 3.36 kg ae/ha measured 7 days post treatment relative to control; type: functional
Erigeron canadensis [18] = assay: Herbicidal activity against compound-resistant Conyza canadensis (horseweed) isolate 1 under greenhouse condition at 3.36 kg ae/ha measured 7 days post treatment relative to control; type: functional
Erigeron canadensis [19] = assay: Herbicidal activity against compound-resistant Conyza canadensis (horseweed) isolate 1 under greenhouse condition assessed as fresh weight at 9 kg ae/ha measured 21 days post treatment relative to untreated control
Erigeron canadensis [20] = assay: Herbicidal activity against compound-sensitive Conyza canadensis (horseweed) under greenhouse condition at 0.84 kg ae/ha measured 21 days post treatment relative to control; type: functional
Erigeron canadensis [21] = assay: Herbicidal activity against compound-sensitive Conyza canadensis (horseweed) under greenhouse condition at 0.45 kg ae/ha measured 14 days post treatment relative to control; type: functional
Erigeron canadensis [22] = assay: Herbicidal activity against compound-sensitive Conyza canadensis (horseweed) under greenhouse condition assessed as fresh weight at 3.36 kg ae/ha measured 21 days post treatment relative to untreated control
Erigeron canadensis [23] = assay: Herbicidal activity against compound-resistant Conyza canadensis (horseweed) isolate 2 under greenhouse condition assessed as fresh weight at 2.52 kg ae/ha measured 21 days post treatment relative to untreated control
Erigeron canadensis [24] = assay: Herbicidal activity against Conyza canadensis (horseweed) under greenhouse condition at 0.05 kg ae/ha measured 14 days post treatment relative to control; type: functional
Erigeron canadensis [25] = assay: Herbicidal activity against compound-resistant Conyza canadensis (horseweed) isolate 2 under greenhouse condition at 3.36 kg ae/ha measured 21 days post treatment relative to control; type: functional
Erigeron canadensis [26] = assay: Herbicidal activity against compound-resistant Conyza canadensis (horseweed) isolate 1 under greenhouse condition at 9 kg ae/ha measured 7 days post treatment relative to control; type: functional
Erigeron canadensis [27] = assay: Herbicidal activity against compound-resistant Conyza canadensis (horseweed) isolate 2 under greenhouse condition at 0.84 kg ae/ha measured 21 days post treatment relative to control; type: functional
Erigeron canadensis [28] = assay: Herbicidal activity against compound-resistant Conyza canadensis (horseweed) isolate 2 under greenhouse condition at 1.25 kg ae/ha measured 14 days post treatment relative to control; type: functional
Erigeron canadensis [29] = assay: Herbicidal activity against compound-resistant Conyza canadensis (horseweed) isolate 1 under greenhouse condition at 1.68 kg ae/ha measured 7 days post treatment relative to control; type: functional
Erigeron canadensis [30] = assay: Herbicidal activity against compound-resistant Conyza canadensis (horseweed) isolate 1 under greenhouse condition at 3.36 kg ae/ha measured 14 days post treatment relative to control; type: functional
Erigeron canadensis [31] = assay: Herbicidal activity against compound-resistant Conyza canadensis (horseweed) isolate 1 under greenhouse condition at 9 kg ae/ha measured 14 days post treatment relative to control; type: functional
Erigeron canadensis [32] = assay: Herbicidal activity against compound-sensitive Conyza canadensis (horseweed) under greenhouse condition at 0.84 kg ae/ha measured 7 days post treatment relative to control; type: functional
Erigeron canadensis [33] = assay: Herbicidal activity against compound-resistant Conyza canadensis (horseweed) isolate 2 under greenhouse condition at 0.45 kg ae/ha measured 21 days post treatment relative to control; type: functional
Erigeron canadensis [34] = assay: Herbicidal activity against compound-sensitive Conyza canadensis (horseweed) under greenhouse condition at 2.52 kg ae/ha measured 21 days post treatment relative to control; type: functional
Erigeron canadensis [35] = assay: Herbicidal activity against compound-resistant Conyza canadensis (horseweed) isolate 1 under greenhouse condition at 1.25 kg ae/ha measured 21 days post treatment relative to control; type: functional
Erigeron canadensis [36] = assay: Herbicidal activity against compound-resistant Conyza canadensis (horseweed) isolate 1 under greenhouse condition at 0.45 kg ae/ha measured 14 days post treatment relative to control; type: functional
Erigeron canadensis [37] = assay: Herbicidal activity against compound-resistant Conyza canadensis (horseweed) isolate 1 under greenhouse condition assessed as fresh weight at 1.25 kg ae/ha measured 21 days post treatment relative to untreated control

O=C(O)CNCP(=O)(O)O [GLYPHOSATE] gave an Activity (Erigeron canadensis [1]) of 69%, an Activity (Erigeron canadensis [2]) of 95% and an Activity (Erigeron canadensis [3]) of 4 g. It also gave an Activity (Erigeron canadensis [4]) of 14%, an Activity (Erigeron canadensis [5]) of 92% and an Activity (Erigeron canadensis [6]) of 26%. For the same compound, the “level, % of control” value (Erigeron canadensis [7]) was 19%, the Activity (Erigeron canadensis [8]) was 98% and the Activity (Erigeron canadensis [9]) was 10%. The “level, % of control” value (Erigeron canadensis [10]) was 2%, the Activity (Erigeron canadensis [11]) was 99% and the Activity (Erigeron canadensis [12]) was 43%. For the same compound, the Activity (Erigeron canadensis [13]) was 99%, the Activity (Erigeron canadensis [14]) was 20% and the “level, % of control” value (Erigeron canadensis [15]) was 18%. For the same compound, the “level, % of control” value (Erigeron canadensis [16]) was 25%, the Activity (Erigeron canadensis [17]) was 85% and the Activity (Erigeron canadensis [18]) was 73%. The “level, % of control” value (Erigeron canadensis [19]) was 9%, the Activity (Erigeron canadensis [20]) was 88% and the Activity (Erigeron canadensis [21]) was 40%. For the same compound, the “level, % of control” value (Erigeron canadensis [22]) was 6%, the “level, % of control” value (Erigeron canadensis [23]) was 24% and the Activity (Erigeron canadensis [24]) was 16%. The Activity (Erigeron canadensis [25]) was 75%, the Activity (Erigeron canadensis [26]) was 80% and the Activity (Erigeron canadensis [27]) was 24%. The Activity (Erigeron canadensis [28]) was 15%, the Activity (Erigeron canadensis [29]) was 40% and the Activity (Erigeron canadensis [30]) was 58%. It also gave an Activity (Erigeron canadensis [31]) of 80%, an Activity (Erigeron canadensis [32]) of 58% and an Activity (Erigeron canadensis [33]) of 20%. It also gave an Activity (Erigeron canadensis [34]) of 99%, an Activity (Erigeron canadensis [35]) of 30% and an Activity (Erigeron canadensis [36]) of 8%. For the same compound, the “level, % of control” value (Erigeron canadensis [37]) was 88%.

Source: ChEMBL document CHEMBL3045777, “Response of selected horseweed (Conyza canadensis (L.) Cronq.) populations to glyphosate” (2004)
